Laboratory results: US20040219097A1, “Composition useful for the diagnosis, imaging and treatment of tumors” (priority 2003, published 2004)

Key:
JJ5 Breast Cancer cells [1] = test: Cytotoxicity (colony-forming) assay against JJ5 breast cancer cells; assay type: cell-based, human; details: 14 days
Procedure: The number of cells seeded was varied from 3×10^4 to 3×10^6cells to obtain approximately 400 viable colonies/dish taking into account the plating efficiency and the expected level of cytotoxicity. Control dishes contained JJ5 breast cancer cells which were incubated with normal saline. Growth medium was added and the cells were cultured at 37° C./5% CO^2 for 14 days. The growth medium was removed and the colonies were stained with methylene blue (1% in a 1:1 mixture of ethanol and water) then washed twice. The number of colonies per dish was counted using a manual colony counter (Manostat Corp). The plating efficiency was calculated by dividing the number of colonies observed by the number of cells seeded in each dish.

JJ5 Breast Cancer cells [2] = test: Growth inhibition assay against JJ5 breast cancer cells; assay type: cell-based, human; details: 4 days culture
Procedure: Growth medium was added and the cells were cultured at 37° C./5% CO^2 for 4 days. The cells were then recovered by trypsinization and counted in a hemocytometer. Control dishes contained cells cultured in growth medium containing ^111In-DTPA or growth medium alone.

JJ5 Breast Cancer cells [3] = test: Binding of EGF-^111In-labeled transferrin compound to breast cancer cells (radioligand binding, kinetics, retention); design: species or system human
Procedure: For the normal breast cell line HBL-100, 8000 EGFR/cell has been reported. The expression of EGFR in breast cancer cell lines has a reported range of 800 EGFR/cell for MCF-7 cells to 10^6 EGFR/cell for MDA-MB-468 cells. […] Utilizing the Auger electron emitter ^111In was used in the initial experiments to illustrate the utility of the invention using EGF-^111In-labeled transferrin compounds. The EGF-^111In-labeled transferrin (0.25-80 ng) was incubated with 1.5×10^6 cells/dish JJ5 Breast Cancer (prepared from BCBM JJ5) cells in 1 mL of 0.1% human serum albumin in 35 mm multiwell culture dishes at 37° C. for 30 minutes. The cells were transferred to a centrifuge tube and centrifuged. The cell pellet was separated from the supernatant and counted in a g-scintillation counter to determine bound (B) and free (F) radioactivity. Non-specific binding was determined by conducting the assay in 100 nM hEGF. […] Internalized fraction was measured by determining the proportion of radioactivity which could not be displaced from the cell surface by 100 nM hEGF. Cell-associated binding (surface-binding and intracellular accumulation) was expressed as a percentage of medium radioactivity bound per mg of cell study protein.

| Molecule | reduction in cell survival for JJ5 cells (JJ5 Breast Cancer cells [1]; 8 pCi/cell) | growth inhibition of the JJ5 cells compared to the medium control (JJ5 Breast Cancer cells [2]; 3.4 pCi/cell) | internalization by cancer cells, in words (JJ5 Breast Cancer cells [3]) | binding by the breast cancer cells (kinetics, in words) (JJ5 Breast Cancer cells [3]; JJ5 cells, 37° C.) | retained by the breast cancer cells (JJ5 Breast Cancer cells [3]; JJ5 cells, 37° C.) | affinity constant for binding to JJ5 cells (JJ5 Breast Cancer cells [3]; JJ5 cells, 37° C., 30 minutes) | cell killing (JJ5 Breast Cancer cells [1]; <6 pCi/cell) | growth inhibition of the JJ5 cells compared to the medium control (JJ5 Breast Cancer cells [2]; 3.5 pCi/cell) |
| --- | --- | --- | --- | --- | --- | --- | --- | --- |
| EGF-^111In-labeled transferrin compound: human EGF linked to ^111In-labeled human transferrin | 99% | 83% | rapidly internalized | rapidly bound | at least 24 hours | 8e+08 L/mol |  |  |
| [In+3].[O-]c1cccc2cccnc12.[O-]c1cccc2cccnc12.[O-]c1cccc2cccnc12 [^111In-oxine, reference compound] |  |  |  |  |  |  | greater than 99% | 91% |
